Assay results: patent US8334315B2, “Substituted aromatic carboxamide and urea derivatives as vanilloid receptor ligands” (Gruenenthal GmbH, priority 2009, dated 2012)

The molecules below were run against T1, hVR1 (Homo sapiens, UniProt Q8NER1) (assay: Functional test on VR1, FLIPR Ca2+ influx in transfected CHO K1 cells, capsaicin). Conditions: not given.
T1 construct: expressed in transfected cells; host or cells: CHO K1 cells (ECACC), stably transfected
T1 sequence (Q8NER1 whole entry): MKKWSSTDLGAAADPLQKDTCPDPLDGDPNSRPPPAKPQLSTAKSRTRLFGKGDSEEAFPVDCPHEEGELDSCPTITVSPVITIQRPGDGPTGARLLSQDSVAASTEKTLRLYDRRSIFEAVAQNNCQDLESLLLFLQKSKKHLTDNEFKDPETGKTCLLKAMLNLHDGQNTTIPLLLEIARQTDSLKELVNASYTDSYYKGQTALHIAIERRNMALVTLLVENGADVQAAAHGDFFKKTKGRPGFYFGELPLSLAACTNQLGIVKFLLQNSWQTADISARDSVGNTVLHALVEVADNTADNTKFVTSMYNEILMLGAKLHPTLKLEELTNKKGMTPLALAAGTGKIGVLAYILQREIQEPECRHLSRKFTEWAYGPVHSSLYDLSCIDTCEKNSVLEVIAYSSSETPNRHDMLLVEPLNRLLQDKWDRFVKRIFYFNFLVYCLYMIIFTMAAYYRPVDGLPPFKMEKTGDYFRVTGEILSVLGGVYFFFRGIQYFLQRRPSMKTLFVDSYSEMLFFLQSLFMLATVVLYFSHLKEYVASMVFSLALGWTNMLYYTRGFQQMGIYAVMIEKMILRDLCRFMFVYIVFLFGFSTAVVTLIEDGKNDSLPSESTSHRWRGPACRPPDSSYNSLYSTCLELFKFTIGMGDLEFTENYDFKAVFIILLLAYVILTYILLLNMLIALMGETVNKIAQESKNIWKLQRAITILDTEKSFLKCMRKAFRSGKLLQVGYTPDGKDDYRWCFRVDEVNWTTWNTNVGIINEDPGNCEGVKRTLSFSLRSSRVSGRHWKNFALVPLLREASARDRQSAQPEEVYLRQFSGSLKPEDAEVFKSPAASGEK
Assay type: cell-based, human being
Parameters: key to Ki (human being) [nM] Cap: agonist / partial agonist / no effect: AG=agonist; pAG=partial agonist; NE=no effect
Text: In the process, the Ca^2+ influx is quantified in the FLIPR assay with the aid of a Ca^2+-sensitive dye (type Fluo-4, Molecular Probes Europe BV, Leiden, the Netherlands) in a fluorescent imaging plate reader (FLIPR, Molecular Devices, Sunnyvale, USA), as described hereinafter.
II. Functional Tests Carried Out on the Vanilloid Receptor (VR1)
The agonistic or antagonistic effect of the substances to be tested on the vanilloid receptor 1 (VR1) can also be determined using the following assay. In this assay, the influx of Ca^2+ through the channel is quantified with the aid of a Ca^2+-sensitive dye (type Fluo-4, Molecular Probes Europe BV, Leiden, the Netherlands) in a fluorescent imaging plate reader (FLIPR, Molecular Devices, Sunnyvale, USA).
Chinese hamster ovary cells (CHO K1 cells, European Collection of Cell Cultures (ECACC) United Kingdom) are stably transfected with the VR1 gene. For functional testing, these cells are plated out on poly-D-lysine-coated black 96-well plates having a clear base (BD Biosciences, Heidelberg, Germany) at a density of 25,000 cells/well. The cells are incubated overnight at 37° C. and 5% CO2 in a culture medium (Ham's F12 nutrient mixture, 10% by volume of FCS (foetal calf serum), 18 μg/ml of L-proline). The next day the cells are incubated with Fluo-4 (Fluo-4 2 μM, 0.01% by volume of Pluronic F127, Molecular Probes in HBSS (Hank's buffered saline solution), Gibco Invitrogen GmbH, Karlsruhe, Germany) for 30 minutes at 37° C. Subsequently, the plates are washed three times with HBSS buffer and after further incubation for 15 minutes at RT used for Ca^2+ measurement in a FLIPR assay. The Ca^2+-dependent fluorescence is measured before and after the addition of the substances to be tested (λex wavelength=488 nm, λem=540 nm). Quantification is carried out by measuring the highest fluorescence intensity (FC, fluorescence counts) over time.
The FLIPR protocol consists of 2 substance additions. First the compounds to be tested (10 μM) are pipetted onto the cells and the Ca^2+ influx is compared with the control (capsaicin 10 μM) (% activation based on the Ca^2+ signal after the addition of 10 μM of capsaicin). After 5 minutes' incubation, 100 nM of capsaicin are applied and the Ca^2+ influx is also determined.
Desensitising agonists and antagonists led to suppression of the Ca^2+ influx. The % inhibition is calculated compared to the maximum achievable inhibition with 10 μM of capsaicin.
Starting from the percentage displacement caused by different concentrations of the compounds to be tested of general formula I, IC50 inhibitory concentrations which cause a 50-per cent displacement of capsaicin were calculated. Ki values for the test substances were obtained by conversion by means of the Cheng-Prusoff equation (Cheng, Prusoff; Biochem. Pharmacol. 22, 3099-3108, 1973).
The affinity of the compounds according to the invention for the vanilloid receptor 1 (VR1/TRPV1 receptor) was determined as described hereinbefore (pharmacological methods I and II respectively).
For CC(C(=O)NCc1cc(C(F)(F)F)nn1-c1cccc(Cl)c1)c1ccc2nc(N)sc2c1 (stereo not shown) [Example 43, 2-(2-aminobenzo[d]thiazol-6-yl)-N-((1-(3-chlorophenyl)-3-(trifluoromethyl)-1H-pyrazol-5-yl)methyl)propanamide], the “Ki (human being) [nM] Cap: agonist / partial agonist / no effect” value (“Ki … agonist / partial agonist / no effect” below) was “pAG”. CC(C)(C)c1cc(CNC(=O)Nc2cccc3c2CCC3)n(-c2cccc(Cl)c2)n1 [Example 78, 1-((3-tert-butyl-1-(3-chlorophenyl)-1H-pyrazol-5-yl)methyl)-3-(2,3-dihydro-1H-inden-4-yl)urea] was tested, and the “Ki … agonist / partial agonist / no effect” value was “pAG”. In the case of CC(C)(C)c1cc(CNC(=O)Nc2cccc3c2OCC3)n(-c2cccc(Cl)c2)n1 [Example 185, 1-((3-tert-butyl-1-(3-chlorophenyl)-1H-pyrazol-5-yl)methyl)-3-(2,3-dihydrobenzofuran-7-yl)urea], the “Ki … agonist / partial agonist / no effect” value was “pAG”. CC(C)(C)c1cc(CNC(=O)Nc2ccc3c(c2)OC(F)(F)O3)n(-c2cccc(Cl)c2)n1 [Example 187, 1-((3-tert-butyl-1-(3-chlorophenyl)-1H-pyrazol-5-yl)methyl)-3-(2,2-difluorobenzo[d][1,3]dioxol-5-yl)urea] was tested, and the “Ki … agonist / partial agonist / no effect” value was “AG”. For CC(C(=O)NCc1cc(C(F)(F)F)nn1-c1cccc(Cl)c1)c1ccc2c(cnn2S(C)(=O)=O)c1 (stereo not shown) [Example 191, N-((1-(3-chlorophenyl)-3-(trifluoromethyl)-1H-pyrazol-5-yl)methyl)-2-(1-(methylsulfonyl)-1H-indazol-5-yl)propanamide], the “Ki … agonist / partial agonist / no effect” value was “pAG”.

Same assay, conditions: capsaicin (Cap); includes values given in brackets after pAG; read-out: Ki (human being) [nM] Cap
In the case of CC(C(=O)NCc1cc(C(F)(F)F)nn1-c1cccc(Cl)c1)c1cccc2c1CCCC2 (stereo not shown) [Example 2, N-((1-(3-chlorophenyl)-3-(trifluoromethyl)-1H-pyrazol-5-yl)methyl)-2-(5,6,7,8-tetrahydronaphthalen-1-yl)propanamide], the Ki was 6.6 nM. CC(C(=O)NCc1cc(C(F)(F)F)nn1-c1cccc(Cl)c1)c1ccc2c(c1)C(=O)CC2 (stereo not shown) [Example 6, N-((1-(3-chlorophenyl)-3-(trifluoromethyl)-1H-pyrazol-5-yl)methyl)-2-(3-oxo-2,3-dihydro-1H-inden-5-yl)propanamide] was tested, and the Ki was 12.8 nM. Molecule CC(C(=O)NCc1cc(C(C)(C)C)nn1-c1cccc(Cl)c1)c1cccc2[nH]ccc12 (stereo not shown) [Example 25, N-((3-tert-butyl-1-(3-chlorophenyl)-1H-pyrazol-5-yl)methyl)-2-(1H-indol-4-yl)propanamide] has a Ki of 5.5 nM. CC(C(=O)NCc1cc(C(F)(F)F)nn1-c1cccc(Cl)c1)c1cccc2c1ccn2C (stereo not shown) [Example 26, N-((1-(3-chlorophenyl)-3-(trifluoromethyl)-1H-pyrazol-5-yl)methyl)-2-(1-methyl-1H-indol-4-yl)propanamide] showed a Ki of 21.5 nM. Work on CC(C(=O)NCc1cc(C(F)(F)F)nn1-c1cccc(Cl)c1)c1ccc2ncsc2c1 (stereo not shown) [Example 42, 2-(benzo[d]thiazol-6-yl)-N-((1-(3-chlorophenyl)-3-(trifluoromethyl)-1H-pyrazol-5-yl)methyl)propanamide] yielded a Ki of 4 nM. CC(C(=O)NCc1cc(C(F)(F)F)nn1-c1cccc(Cl)c1)c1ccc2nc(N)sc2c1 (stereo not shown) [Example 43, 2-(2-aminobenzo[d]thiazol-6-yl)-N-((1-(3-chlorophenyl)-3-(trifluoromethyl)-1H-pyrazol-5-yl)methyl)propanamide] was tested, and the Ki was 22.9 nM. Molecule Cc1cc2c(C(C)C(=O)NCc3cc(C(F)(F)F)nn3-c3cccc(Cl)c3)cccc2c(C)n1 (stereo not shown) [Example 67, N-((1-(3-chlorophenyl)-3-(trifluoromethyl)-1H-pyrazol-5-yl)methyl)-2-(1,3-dimethylisoquinolin-5-yl)propanamide] has a Ki of 5.2 nM. Work on CC(C(=O)NCc1cc(C(F)(F)F)nn1-c1cccc(Cl)c1)c1ccc2cccnc2c1 (stereo not shown) [Example 72, N-((1-(3-chlorophenyl)-3-(trifluoromethyl)-1H-pyrazol-5-yl)methyl)-2-(quinolin-7-yl)propanamide] yielded a Ki of 0.5 nM. CC(C)(C)c1cc(CNC(=O)Nc2cccc3c2CCC3)n(-c2cccc(Cl)c2)n1 [Example 78, 1-((3-tert-butyl-1-(3-chlorophenyl)-1H-pyrazol-5-yl)methyl)-3-(2,3-dihydro-1H-inden-4-yl)urea] gave a Ki of 2.4 nM. Work on CC(C)(C)c1cc(CNC(=O)Nc2cccc3ccncc23)n(-c2cccc(Cl)c2)n1 [Example 108, 1-((3-tert-butyl-1-(3-chlorophenyl)-1H-pyrazol-5-yl)methyl)-3-(isoquinolin-8-yl)urea] yielded a Ki of 0.5 nM. O=C(NCc1cc(C(F)(F)F)nn1-c1ccc(Cl)cc1)Nc1ccc2c(c1)CCC2 [Example 174, 1-((1-(4-chlorophenyl)-3-(trifluoromethyl)-1H-pyrazol-5-yl)methyl)-3-(2,3-dihydro-1H-inden-5-yl)urea] was tested, and the Ki was 75.8 nM. Work on O=C(NCc1cc(C(F)(F)F)nn1-c1ccc(F)cc1)Nc1ccc2c(c1)CCC2 [Example 175, 1-(2,3-dihydro-1H-inden-5-yl)-3-((1-(4-fluorophenyl)-3-(trifluoromethyl)-1H-pyrazol-5-yl)methyl)urea] yielded a Ki of 70.2 nM. For CC(C)(C)c1cc(CNC(=O)Nc2ccc3c(c2)CCC3)n(-c2cccc(F)c2)n1 [Example 176, 1-((3-tert-butyl-1-(3-fluorophenyl)-1H-pyrazol-5-yl)methyl)-3-(2,3-dihydro-1H-inden-5-yl)urea], the Ki was 34 nM. Work on CC(C)(C)c1cc(CNC(=O)Nc2ccc3c(c2)CCC3)n(-c2ccc(F)c(Cl)c2)n1 [Example 177, 1-((3-tert-butyl-1-(3-chloro-4-fluorophenyl)-1H-pyrazol-5-yl)methyl)-3-(2,3-dihydro-1H-inden-5-yl)urea] yielded a Ki of 10.3 nM. Molecule COc1ccc(-n2nc(C(F)(F)F)cc2CNC(=O)Nc2ccc3c(c2)CCC3)cc1 [Example 178, 1-(2,3-dihydro-1H-inden-5-yl)-3-((1-(4-methoxyphenyl)-3-(trifluoromethyl)-1H-pyrazol-5-yl)methyl)urea] has a Ki of 38.4 nM. In the case of O=C(NCc1cc(C(F)(F)F)nn1-c1ccc(C(F)(F)F)cc1)Nc1ccc2c(c1)CCC2 [Example 179, 1-(2,3-dihydro-1H-inden-5-yl)-3-((3-(trifluoromethyl)-1-(4-(trifluoromethyl)phenyl)-1H-pyrazol-5-yl)methyl)urea], the Ki was 36.3 nM. O=C(NCc1cc(C(F)(F)F)nn1-c1ccc(OC(F)(F)F)cc1)Nc1ccc2c(c1)CCC2 [Example 180, 1-(2,3-dihydro-1H-inden-5-yl)-3-((1-(4-(trifluoromethoxy)phenyl)-3-(trifluoromethyl)-1H-pyrazol-5-yl)methyl)urea] showed a Ki of 41 nM. For Cc1ccc(-n2nc(C(F)(F)F)cc2CNC(=O)Nc2ccc3c(c2)CCC3)cc1C [Example 181, 1-(2,3-dihydro-1H-inden-5-yl)-3-((1-(3,4-dimethylphenyl)-3-(trifluoromethyl)-1H-pyrazol-5-yl)methyl)urea], the Ki was 35.9 nM. In the case of CC(C)(C)c1cc(CNC(=O)Nc2ccc3c(c2)CCC3)n(-c2cc(Cl)cc(Cl)c2)n1 [Example 182, 1-((3-tert-butyl-1-(3,5-dichlorophenyl)-1H-pyrazol-5-yl)methyl)-3-(2,3-dihydro-1H-inden-5-yl)urea], the Ki was 32.8 nM. Molecule CC(C(=O)NCc1cc(C2CC2)nn1-c1cccc(Cl)c1)c1ccc2c(c1)OCO2 (stereo not shown) [Example 183, 2-(benzo[d][1,3]dioxol-5-yl)-N-((1-(3-chlorophenyl)-3-cyclopropyl-1H-pyrazol-5-yl)methyl)propanamide] has a Ki of 28.4 nM. CC(C(=O)NCc1cc(C(F)(F)F)nn1C1CCCCC1)c1ccc2c(c1)OCCO2 (stereo not shown) [Example 184, N-((1-cyclohexyl-3-(trifluoromethyl)-1H-pyrazol-5-yl)methyl)-2-(2,3-dihydrobenzo[b][1,4]dioxin-6-yl)propanamide] gave a Ki of 66.2 nM. With CC(C)(C)c1cc(CNC(=O)Nc2cccc3c2OCC3)n(-c2cccc(Cl)c2)n1 [Example 185, 1-((3-tert-butyl-1-(3-chlorophenyl)-1H-pyrazol-5-yl)methyl)-3-(2,3-dihydrobenzofuran-7-yl)urea] the Ki was 39.7 nM. With CC(C)(C)c1cc(CNC(=O)Cc2ccc3c(c2)OCCO3)n(-c2cccc(Cl)c2)n1 [Example 188, N-((3-tert-butyl-1-(3-chlorophenyl)-1H-pyrazol-5-yl)methyl)-2-(2,3-dihydrobenzo[b][1,4]dioxin-6-yl)acetamide] the Ki was 5.9 nM. Work on CC(C(=O)NCc1cc(C(F)(F)F)nn1-c1cccc(Cl)c1)c1ccc2c(c1)CCC(C)(C)O2 (stereo not shown) [Example 189, N-((1-(3-chlorophenyl)-3-(trifluoromethyl)-1H-pyrazol-5-yl)methyl)-2-(2,2-dimethylchroman-6-yl)propanamide] yielded a Ki of 41.2 nM. In the case of CC(C(=O)NCc1cc(C(F)(F)F)nn1-c1cccc(Cl)c1)c1ccc2c(c1)C=CC(C)(C)O2 (stereo not shown) [Example 190, N-((1-(3-chlorophenyl)-3-(trifluoromethyl)-1H-pyrazol-5-yl)methyl)-2-(2,2-dimethyl-2H-chromen-6-yl)propanamide], the Ki was 30.4 nM. For CC(C(=O)NCc1cc(C(F)(F)F)nn1-c1cccc(Cl)c1)c1ccc2c(cnn2S(C)(=O)=O)c1 (stereo not shown) [Example 191, N-((1-(3-chlorophenyl)-3-(trifluoromethyl)-1H-pyrazol-5-yl)methyl)-2-(1-(methylsulfonyl)-1H-indazol-5-yl)propanamide], the Ki was 0.6 nM.
